In PubChem BioAssay AID330 (DTP/NCI, 2004):
“And” between values parts separate entries of the source, which are not always exact repeats. Equal entries are not always repeated. Inconclusive results and toxic doses are left out. Rule for the calls: active = survival T/C of 150% or more; inactive = T/C below 125% in these data.

System: P388 leukemia ip, CD2F1 mice, survival T/C
Experiment: NCI In Vivo Anticancer Drug Screen. Data for tumor model P388 Leukemia (intraperitoneal) in CD2F1 (CDF1) mice
Conditions: endpoint: median survival time, higher = longer survival
Procedure, shortened: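 Mice carrying the transplanted tumor received test compound or vehicle. Survival was recorded in each group, and the value is the treated-group measurement divided by that of the vehicle-treated control group.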

[1] = dose: 100.0 mg/kg/injection, schedule: Q04DX002 (ip), vehicle: saline with Tween-80
[2] = dose: 200.0 mg/kg/injection, schedule: Q04DX002 (ip), vehicle: saline with Tween-80
[3] = dose: 50.0 mg/kg/injection, schedule: Q01DX005 (ip), vehicle: Klucel (hydroxypropylcellulose) (HPC)
[4] = dose: 100.0 mg/kg/injection, schedule: Q01DX005 (ip), vehicle: Klucel (hydroxypropylcellulose) (HPC)
[5] = dose: 50.0 mg/kg/injection, schedule: Q01DX009 (ip), vehicle: saline
[6] = dose: 100.0 mg/kg/injection, schedule: Q01DX009 (ip), vehicle: saline
[7] = dose: 200.0 mg/kg/injection, schedule: Q01DX009 (ip), vehicle: saline
[8] = dose: 50.0 mg/kg/injection, schedule: Q01DX005 (ip), vehicle: saline with Tween-80
[9] = dose: 100.0 mg/kg/injection, schedule: Q01DX005 (ip), vehicle: saline with Tween-80
[10] = dose: 200.0 mg/kg/injection, schedule: Q01DX005 (ip), vehicle: saline with Tween-80
[11] = dose: 50.0 mg/kg/injection, schedule: Q01DX009 (ip), vehicle: saline with Tween-80
[12] = dose: 200.0 mg/kg/injection, schedule: Q01DX009 (ip), vehicle: saline with Tween-80

Measured: T/C

CC1(C)COC(c2ccc(Br)cc2)=N1
inactive: dose: 25.0 mg/kg/injection, schedule: Q01DX009 (ip), vehicle: other 101 % of control | dose: 50.0 mg/kg/injection, schedule: Q01DX009 (ip), vehicle: other 97 % of control | dose: 100.0 mg/kg/injection, schedule: Q01DX009 (ip), vehicle: other 102 % of control | dose: 200.0 mg/kg/injection, schedule: Q01DX009 (ip), vehicle: other 104 % of control

Cc1ccc(N=C(N)NN=C(c2ccc(Cl)cc2)c2ccc(Cl)cc2)cc1
inactive: dose: 25.0 mg/kg/injection, schedule: Q04DX002 (ip), vehicle: saline with Tween-80 98 % of control and 103 % of control and 107 % of control | dose: 50.0 mg/kg/injection, schedule: Q04DX002 (ip), vehicle: saline with Tween-80 100 % of control and 106 % of control and 108 % of control | [1] 107 % of control (2×) and 109 % of control | [2] 105 % of control and 118 % of control and 120 % of control

COc1cc2c(cc1C(C)c1ccc(C)cc1)OCO2 (centres undefined)
inactive: [3] 103 % of control | [4] 110 % of control | dose: 200.0 mg/kg/injection, schedule: Q01DX005 (ip), vehicle: Klucel (hydroxypropylcellulose) (HPC) 114 % of control

O=[N+]([O-])c1ccc2c(c1)N=Cc1ccccc1NCCNc1ccccc1C=N2
inactive: [5] 95 % of control | [6] 87 % of control and 90 % of control | [7] 92 % of control and 93 % of control

Brc1ccc2[nH]c3nc(N/N=C/c4cccnc4)nnc3c2c1
inactive: [1] 93 % of control | [2] 91 % of control | dose: 400.0 mg/kg/injection, schedule: Q04DX002 (ip), vehicle: saline with Tween-80 99 % of control

Cc1c(-c2ccccc2)oc(=O)c(Cl)c1N(C)C
inactive: [8] 102 % of control | [9] 100 % of control | [10] 100 % of control

COC1CC(OC2C(C)OC(OC3C(C)OC(OC4CCC5(C)C(=CCC6(O)C5CC(OC(=O)c5ccc(O)cc5)C5(C)C(O)(C(C)=O)CCC65O)C4)CC3OC)CC2OC)OC(C)C1O (centres undefined) (tested in a mixture with another compound)
inactive: dose: 12.5 mg/kg/injection, schedule: Q01DX005 (ip), vehicle: distilled water + Tween-80 + alcohol 100 % of control | dose: 25.0 mg/kg/injection, schedule: Q01DX005 (ip), vehicle: distilled water + Tween-80 + alcohol 94 % of control | dose: 50.0 mg/kg/injection, schedule: Q01DX005 (ip), vehicle: distilled water + Tween-80 + alcohol 101 % of control | dose: 100.0 mg/kg/injection, schedule: Q01DX005 (ip), vehicle: distilled water + Tween-80 + alcohol 115 % of control

O=C1c2ccccc2C(=O)N1CC#CC[N+]1([O-])CCc2ccccc2C1 (centres undefined)
inactive: dose: 12.5 mg/kg/injection, schedule: Q01DX005 (ip), vehicle: Klucel (hydroxypropylcellulose) (HPC) 103 % of control | dose: 25.0 mg/kg/injection, schedule: Q01DX005 (ip), vehicle: Klucel (hydroxypropylcellulose) (HPC) 102 % of control | [3] 103 % of control | [4] 110 % of control

CC1(C)CCCC(C)(C2CCC3(C)C2C(O)CC2C4(C)CCC(O)C(C)(C)C4C(O)CC23C)O1 (centres undefined)
inactive: dose: 6.25 mg/kg/injection, schedule: Q01DX009 (ip), vehicle: Klucel (hydroxypropylcellulose) (HPC) 101 % of control | dose: 12.5 mg/kg/injection, schedule: Q01DX009 (ip), vehicle: Klucel (hydroxypropylcellulose) (HPC) 99 % of control | dose: 25.0 mg/kg/injection, schedule: Q01DX009 (ip), vehicle: Klucel (hydroxypropylcellulose) (HPC) 96 % of control | dose: 50.0 mg/kg/injection, schedule: Q01DX009 (ip), vehicle: Klucel (hydroxypropylcellulose) (HPC) 92 % of control | dose: 100.0 mg/kg/injection, schedule: Q01DX009 (ip), vehicle: Klucel (hydroxypropylcellulose) (HPC) 92 % of control

Nc1nc2c(c(=O)[nH]1)N(C(=O)CCl)C(CNc1ccc(C(=O)NC(CCC(=O)O)C(=O)O)cc1)CN2 (centres undefined)
inactive: dose: 50.0 mg/kg/injection, schedule: Q01DX009 (ip), vehicle: water 99 % of control | dose: 100.0 mg/kg/injection, schedule: Q01DX009 (ip), vehicle: water 103 % of control | dose: 200.0 mg/kg/injection, schedule: Q01DX009 (ip), vehicle: water 101 % of control

CCN(CC)C(=O)c1c(C(=O)OC)c(C)n(NC(N)=O)c1C
inactive: [8] 105 % of control | [9] 107 % of control | [10] 108 % of control

S=C(NCCc1ccccc1)N/N=C/c1ccc(Cl)cc1
inactive: [3] 104 % of control | [4] 100 % of control

Fc1ccccc1C(Nc1ncccn1)Nc1ncccn1
inactive: [11] 88 % of control | [5] 94 % of control | dose: 100.0 mg/kg/injection, schedule: Q01DX009 (ip), vehicle: saline with Tween-80 87 % of control | [6] 99 % of control | [12] 87 % of control | [7] 94 % of control

CCOC1OCN(C2CCCCC2)CC1(C)C (centres undefined)
inactive: [11] 109 % of control | [12] 110 % of control
